Test results taken from PubChem BioAssay (NCI).
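Cultured in 96-well plates, cells were exposed to test compound for 48 hours across five concentrations. Definition used: TGI = concentration required for complete inhibition of growth.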

Columns and labels:
Assay in all cases: NCI anticancer screen, dose series, 48 h
[1] = system: 786-0 renal
[2] = system: A498 renal
[3] = system: A549 NSCLC
[4] = system: ACHN renal
[5] = system: CAKI-1 renal
[6] = system: CCRF-CEM leukemia
[7] = system: COLO 205 colon
[8] = system: DLD-1 colon
[9] = system: DMS 114 small cell lung
[10] = system: DMS 273 small cell lung
[11] = system: EKVX NSCLC
[12] = system: HCC-2998 colon
[13] = system: HCT-116 colon
[14] = system: HCT-15 colon
[15] = system: HL-60(TB) leukemia
[16] = system: HOP-18 NSCLC
[17] = system: HOP-62 NSCLC
[18] = system: HT29 colon
[19] = system: IGROV1 ovarian
[20] = system: K-562 leukemia
[21] = system: KM12 colon
[22] = system: KM20L2 colon
[23] = system: LOX IMVI melanoma
[24] = system: LXFL 529 NSCLC
[25] = system: M14 melanoma
[26] = system: M19-MEL melanoma
[27] = system: MALME-3M melanoma
[28] = system: MOLT-4 leukemia
[29] = system: NCI-H226 lung
[30] = system: NCI-H23 lung
[31] = system: NCI-H522 lung
[32] = system: OVCAR-3 ovarian
[33] = system: OVCAR-4 ovarian
[34] = system: OVCAR-5 ovarian
[35] = system: OVCAR-8 ovarian
[36] = system: RPMI-8226 leukemia
[37] = system: RXF 393 renal
[38] = system: SF-268 CNS
[39] = system: SF-295 CNS
[40] = system: SK-MEL-2 melanoma
[41] = system: SK-MEL-28 melanoma
[42] = system: SK-MEL-5 melanoma
[43] = system: SK-OV-3 ovarian
[44] = system: SN12C renal
[45] = system: SNB-19 CNS
[46] = system: SNB-75 CNS
[47] = system: SNB-78 CNS
[48] = system: SR leukemia
[49] = system: SW-620 colon
[50] = system: TK-10 renal
[51] = system: U251 CNS
[52] = system: UACC-257 melanoma
[53] = system: UACC-62 melanoma
[54] = system: UO-31 renal
[55] = system: HOP-92 NSCLC
[56] = system: NCI-H460 lung
[57] = system: SF-539 CNS

Measured: TGI

O=C1CC(c2ccccc2)NCN1 (configuration not stated)
> 100 µM: [1] | [2] | [3] | [4] | [5] | [6] | [7] | [8] | [9] | [10] | [11] | [12] | [13] | [14] | [15] | [16] | [17] | [18] | [19] | [20] | [21] | [22] | [23] | [24] | [25] | [26] | [27] | [28] | [29] | [30] | [31] | [32] | [33] | [34] | [35] | [36] | [37] | [38] | [39] | [40] | [41] | [42] | [43] | [44] | [45] | [46] | [47] | [48] | [49] | [50] | [51] | [52] | [53] | [54]

CCOC(=O)C1=C(C)C2C3C(=O)NC(=O)C3C1(C)C1C(=O)NC(=O)C21 (configuration not stated)
> 100 µM: [1] | [2] | [3] | [4] | [6] | [7] | [8] | [9] | [10] | [11] | [12] | [13] | [14] | [15] | [16] | [17] | [55] | [18] | [19] | [20] | [21] | [22] | [23] | [24] | [25] | [26] | [27] | [28] | [29] | [30] | [56] | [32] | [33] | [35] | [36] | [37] | [38] | [39] | [57] | [40] | [41] | [42] | [43] | [44] | [45] | [46] | [47] | [49] | [50] | [51] | [52] | [53] | [54]
